Measurements as given in the Kinase Knowledgebase extract (Sharma et al. 2016).

Each molecule was assayed against MAPK14 (human) (UniProt Q16539) (assay: Inhibtion of MAPK14 Kinase Activity).
Chain of MAPK14 (human) (Q16539 whole entry, looked up): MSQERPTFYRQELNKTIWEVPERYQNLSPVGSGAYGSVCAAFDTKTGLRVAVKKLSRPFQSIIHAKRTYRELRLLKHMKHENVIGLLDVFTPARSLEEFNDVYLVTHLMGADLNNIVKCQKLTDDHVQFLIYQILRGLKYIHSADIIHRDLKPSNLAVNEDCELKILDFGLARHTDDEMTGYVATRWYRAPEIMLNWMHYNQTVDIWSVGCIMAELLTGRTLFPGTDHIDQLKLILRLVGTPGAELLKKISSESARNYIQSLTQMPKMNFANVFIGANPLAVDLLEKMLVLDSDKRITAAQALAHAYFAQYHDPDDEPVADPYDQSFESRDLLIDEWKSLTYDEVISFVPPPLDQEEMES

IC50, < 100 nM:
Cc1cc(C(=O)c2ccc(=O)n(-c3c(F)cc(OCCCN[C@H](C(=O)OC4CCCC4)c4ccccc4)cc3F)c2N)ccc1F
Cc1cc(C(=O)c2ccc(=O)n(-c3ccc(OCCCN[C@@H](Cc4ccccc4)C(=O)OC4CCCC4)cc3)c2N)ccc1F
CC(C)C[C@H](NCc1ccc(-n2c(N)c(C(=O)c3ccc(F)cc3F)ccc2=O)cc1)C(=O)OC1CCCC1
Cc1cc(C(=O)c2ccc(=O)n(-c3ccc(OCCCN[C@@H](Cc4ccccc4)C(=O)O)cc3)c2N)ccc1F
CCOC(=O)[C@H](CC(C)C)NCCCOc1cc(F)c(-n2c(N)c(C(=O)c3ccc(F)cc3)ccc2=O)c(F)c1
Nc1c(C(=O)c2ccc(F)cc2F)ccc(=O)n1-c1ccc(CN[C@@H](Cc2ccccc2)C(=O)OC2CCCC2)cc1
Nc1c(C(=O)c2ccc(F)cc2)ccc(=O)n1-c1c(F)cc(CN[C@@H](Cc2ccccc2)C(=O)OC2CCCC2)cc1F
CC(C)C[C@H](NCCc1ccc(-n2c(N)c(C(=O)c3ccc(F)cc3F)ccc2=O)cc1)C(=O)O
Nc1c(C(=O)c2ccc(F)cc2F)ccc(=O)n1-c1c(F)cc(OCCCN[C@H](C(=O)OC2CC3CCC2C3)c2ccccc2)cc1F (stereo partly drawn)
Nc1c(C(=O)c2ccc(F)cc2)ccc(=O)n1-c1c(F)cc(OCCCN[C@@H](Cc2ccccc2)C(=O)O)cc1F
CC(C)C[C@H](NCCCOc1cc(F)c(-n2c(N)c(C(=O)c3ccc(F)cc3F)ccc2=O)c(F)c1)C(=O)OC(C)(C)C
CC(C)C[C@H](NCCCOc1cc(F)c(-n2c(N)c(C(=O)c3ccc(F)cc3F)ccc2=O)c(F)c1)C(=O)OC1CCCC1
CC(C)(C)OC(=O)[C@@H](NCCCOc1cc(F)c(-n2c(N)c(C(=O)c3ccc(F)cc3)ccc2=O)c(F)c1)c1ccccc1
Cc1cc(C(=O)c2ccc(=O)n(-c3c(F)cc(OCCCN[C@@H](CC(C)C)C(=O)O)cc3F)c2N)ccc1F
CC(C)C[C@H](NCCCCCOc1cc(F)c(-n2c(N)c(C(=O)c3ccc(F)cc3F)ccc2=O)c(F)c1)C(=O)OC1CCCC1
CC(C)C[C@H](NCCCCCOc1cc(F)c(-n2c(N)c(C(=O)c3ccc(F)cc3F)ccc2=O)c(F)c1)C(=O)OC(C)(C)C
CC(C)C[C@H](NCCCOc1cc(F)c(-n2c(N)c(C(=O)c3ccc(F)cc3F)ccc2=O)c(F)c1)C(=O)O
Nc1c(C(=O)c2ccc(F)cc2F)ccc(=O)n1-c1ccc(CN[C@H](C(=O)O)c2ccccc2)cc1
Nc1c(C(=O)c2ccc(F)cc2F)ccc(=O)n1-c1ccc(CN[C@@H](Cc2ccccc2)C(=O)O)cc1
CC(C)C[C@H](NCCCOc1ccc(-n2c(N)c(C(=O)c3ccc(F)cc3F)ccc2=O)cc1)C(=O)OC(C)(C)C
Nc1c(C(=O)c2ccc(F)cc2F)ccc(=O)n1-c1c(F)cc(OCCCN[C@@H](Cc2ccccc2)C(=O)OC2CCCC2)cc1F
CC(C)C[C@@H](NCCCOc1cc(F)c(-n2c(N)c(C(=O)c3ccc(F)cc3F)ccc2=O)c(F)c1)C(=O)OC(C)(C)C
Nc1c(C(=O)c2ccc(F)cc2F)ccc(=O)n1-c1c(F)cc(OCCCN[C@H](C(=O)OC2Cc3ccccc3C2)c2ccccc2)cc1F
Cc1cc(C(=O)c2ccc(=O)n(-c3c(F)cc(OCCCN[C@@H](Cc4ccccc4)C(=O)O)cc3F)c2N)ccc1F
Nc1c(C(=O)c2ccc(F)cc2)ccc(=O)n1-c1c(F)cc(OC2CCC(N[C@H](C(=O)O)c3ccccc3)CC2)cc1F (stereo partly drawn)
Nc1c(C(=O)c2ccc(F)cc2)ccc(=O)n1-c1c(F)cc(OCCCN[C@@H](Cc2ccccc2)C(=O)OC2CCCC2)cc1F
Cc1cc(C(=O)c2ccc(=O)n(-c3ccc(OCCCN[C@H](C(=O)OC4CCCC4)c4ccccc4)cc3)c2N)ccc1F
CC(C)C[C@H](NCCCOc1ccc(-n2c(N)c(C(=O)c3ccc(F)cc3)ccc2=O)cc1)C(=O)OC1CCCC1
CC(C)C[C@H](NC1CCC(Oc2cc(F)c(-n3c(N)c(C(=O)c4ccc(F)cc4)ccc3=O)c(F)c2)CC1)C(=O)O (stereo partly drawn)
Nc1c(C(=O)c2ccc(F)cc2F)ccc(=O)n1-c1c(F)cc(OCCCN[C@@H](Cc2ccccc2)C(=O)O)cc1F
Nc1c(C(=O)c2ccc(F)cc2)ccc(=O)n1-c1c(F)cc(OCCCN[C@H](C(=O)O)c2ccccc2)cc1F
Nc1c(C(=O)c2ccc(F)cc2F)ccc(=O)n1-c1c(F)cc(OCCCN[C@H](C(=O)O)C2CCCCC2)cc1F
CC(C)C[C@H](NCCCCCOc1cc(F)c(-n2c(N)c(C(=O)c3ccc(F)cc3F)ccc2=O)c(F)c1)C(=O)O
Nc1c(C(=O)c2ccc(F)cc2)ccc(=O)n1-c1ccc(CCN[C@H](C(=O)O)c2ccccc2)cc1
O=C(c1ccc(F)cc1)c1ccc(=O)[nH]c1Nc1c(F)cc(CN[C@@H](Cc2ccccc2)C(=O)OC2CCCC2)cc1F
CC(C)C[C@H](NCc1cc(F)c(-n2c(N)c(C(=O)c3ccc(F)cc3F)ccc2=O)c(F)c1)C(=O)OC1CCCC1
Nc1c(C(=O)c2ccc(F)cc2)ccc(=O)n1-c1c(F)cc(OC2CCC(N[C@@H](Cc3ccccc3)C(=O)O)CC2)cc1F (stereo partly drawn)
Nc1c(C(=O)c2ccc(F)cc2)ccc(=O)n1-c1c(F)cc(OCCCN[C@H](C(=O)OC2CCCC2)c2ccccc2)cc1F
Nc1c(C(=O)c2ccc(F)cc2F)ccc(=O)n1-c1c(F)cc(OCCCN[C@H](C(=O)OC2CCCC2)c2ccccc2)cc1F
Nc1c(C(=O)c2ccc(F)cc2F)ccc(=O)n1-c1c(F)cc(OCCCN[C@@H](C(=O)OC2CCCC2)c2ccccc2)cc1F
CC(C)C[C@@H](NCCCOc1cc(F)c(-n2c(N)c(C(=O)c3ccc(F)cc3F)ccc2=O)c(F)c1)C(=O)O
Nc1c(C(=O)c2ccc(F)cc2F)ccc(=O)n1-c1c(F)cc(OCCCN[C@H](C(=O)O)c2ccccc2)cc1F
Cc1cc(C(=O)c2ccc(=O)n(-c3ccc(OCCCN[C@@H](CC(C)C)C(=O)O)cc3)c2N)ccc1F
Nc1c(C(=O)c2ccc(F)cc2F)ccc(=O)n1-c1c(F)cc(OCCCN[C@@H](C(=O)O)c2ccccc2)cc1F
CC(C)C[C@H](NCCCOc1cc(F)c(-n2c(N)c(C(=O)c3ccc(F)cc3)ccc2=O)c(F)c1)C(=O)O
Nc1c(C(=O)c2ccc(F)cc2)ccc(=O)n1-c1ccc(OCCCN[C@@H](Cc2ccccc2)C(=O)OC2CCCC2)cc1
Nc1c(C(=O)c2ccc(F)cc2F)ccc(=O)n1-c1ccc(OCCCN[C@@H](Cc2ccccc2)C(=O)OC2CCCC2)cc1
Cc1cc(C(=O)c2ccc(=O)n(-c3c(F)cc(OCCCN[C@@H](CC(C)C)C(=O)OC4CCCC4)cc3F)c2N)ccc1F
CC(C)C[C@H](NCc1cc(F)c(-n2c(N)c(C(=O)c3ccc(F)cc3F)ccc2=O)c(F)c1)C(=O)O
Cc1cc(C(=O)c2ccc(=O)n(-c3c(F)cc(OCCCN[C@@H](Cc4ccccc4)C(=O)OC4CCCC4)cc3F)c2N)ccc1F
Nc1c(C(=O)c2ccc(F)cc2)ccc(=O)n1-c1ccc(OCCCN[C@H](C(=O)O)c2ccccc2)cc1
CC(C)C[C@@H](NCCCOc1cc(F)c(-n2c(N)c(C(=O)c3ccc(F)cc3F)ccc2=O)c(F)c1)C(=O)OC1CCCC1
CC(C)C[C@H](NCCCCCOc1cc(F)c(-n2c(N)c(C(=O)c3ccc(F)cc3)ccc2=O)c(F)c1)C(=O)O
